From patent publication US9955691B2, “Macrocyclic picolinamides as fungicides” (DOW AGROSCIENCES LLC, priority 2014, dated 2018) come the findings set out here.

Where two headings read alike, the source gives them in different places.

What all share (format): in vivo
Experiment [1] concerns Mycosphaerella graminicola; Anamorph: Septoria tritici. Nature of the experiment: Fungicidal activity: Leaf Blotch of Wheat (SEPTTR). The settings on record: Zymoseptoria tritici, wheat leaf blotch; for pest or weed control at 100 µg/mL: High Volume (100 ppm); for pest or weed control at 121.5 g/ha: Low Volume (121.5 g/H). In outline: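 Compounds were dissolved in acetone, diluted with nine volumes of water containing 110 ppm Triton X-100, and sprayed to run-off on first-leaf Yuma wheat seedlings inoculated with Septoria tritici spores before or after treatment. Plants were held in a dew chamber, then a 20° C. greenhouse. Percent control was derived from disease severity relative to untreated plants.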

For experiment [2], the system named is Glomerella lagenarium; Anamorph: Colletotrichum lagenarium. Briefly: Fungicidal activity: Cucumber Anthracnose (COLLLA). The settings on record: 100 ppm, 1 DP (1 Day Protectant). The protocol:
Technical grades of materials were dissolved in acetone, which were then mixed with nine volumes of water containing 110 ppm Triton X-100. The fungicide solutions were applied onto wheat seedlings using an automated booth sprayer to run-off. All sprayed plants were allowed to air dry prior to further handling. All fungicides were evaluated using the aforementioned method for their activity vs. all target diseases, unless stated otherwise. Wheat leaf blotch and brown rust activity were also evaluated using track spray applications, in which case the fungicides were formulated as EC formulations, containing 0.1% Trycol 5941 in the spray solutions. Wheat plants (variety Yuma) were grown from seed in a greenhouse in 50% mineral soil/50% soil-less Metro mix until the first leaf was fully emerged, with 7-10 seedlings per pot. These plants were inoculated with an aqueous spore suspension of Septoria tritici either prior to or after fungicide treatments. After inoculation the plants were kept in 100% relative humidity (one day in a dark dew chamber followed by two to three days in a lighted dew chamber at 20° C.) to permit spores to germinate and infect the leaf. The plants were then transferred to a greenhouse set at 20° C. for disease to develop. When disease symptoms were fully expressed on the 1st leaves of untreated plants, infection levels were assessed on a scale of 0 to 100 percent disease severity. Percent disease control was calculated using the ratio of disease severity on treated plants relative to untreated plants. Evaluation of Fungicidal Activity: Cucumber Anthracnose (Glomerella lagenarium; Anamorph: Colletotrichum lagenarium; Bayer Code COLLLA) Cucumber seedlings (variety Bush Pickle) were propagated in soil-less Metro mix, with each pot having one plant, and used in the test when 12 to 14 days old. Test plants were inoculated with an aqueous spore suspension of Colletotrichum lagenarium 24 hr after fungicide treatments. After inoculation the plants were kept in a dew room at 22° C. with 100% relative humidity for 48 hr to permit spores to germinate and infect the leaf. The plants were then transferred to a growth room set at 22° C. for disease to develop. Fungicide formulation, application and disease assessment on the sprayed leaves followed the procedures as described in the Example A.

For experiment [3], the system named is Alternaria solani. Briefly: Fungicidal activity: Tomato Early Blight (ALTESO). Conditions: 100 ppm, 1 DP (1 Day Protectant). The procedure: Technical grades of materials were dissolved in acetone, which were then mixed with nine volumes of water containing 110 ppm Triton X-100. The fungicide solutions were applied onto wheat seedlings using an automated booth sprayer to run-off. All sprayed plants were allowed to air dry prior to further handling. All fungicides were evaluated using the aforementioned method for their activity vs. all target diseases, unless stated otherwise. Wheat leaf blotch and brown rust activity were also evaluated using track spray applications, in which case the fungicides were formulated as EC formulations, containing 0.1% Trycol 5941 in the spray solutions. Wheat plants (variety Yuma) were grown from seed in a greenhouse in 50% mineral soil/50% soil-less Metro mix until the first leaf was fully emerged, with 7-10 seedlings per pot. These plants were inoculated with an aqueous spore suspension of Septoria tritici either prior to or after fungicide treatments. After inoculation the plants were kept in 100% relative humidity (one day in a dark dew chamber followed by two to three days in a lighted dew chamber at 20° C.) to permit spores to germinate and infect the leaf. The plants were then transferred to a greenhouse set at 20° C. for disease to develop. When disease symptoms were fully expressed on the 1st leaves of untreated plants, infection levels were assessed on a scale of 0 to 100 percent disease severity. Percent disease control was calculated using the ratio of disease severity on treated plants relative to untreated plants. Evaluation of Fungicidal Activity: Tomato Early Blight (Alternaria solani; Bayer Code […]) Tomato plants (variety Outdoor Girl) were propagated in soil-less Metro mix, with each pot having one plant, and used when 12 to 14 days old. Test plants were inoculated with an aqueous spore suspension of Alternaria solani 24 hr after fungicide treatments. After inoculation the plants were kept in 100% relative humidity (one day in a dark dew chamber followed by two to three days in a lighted dew chamber at 20° C.) to permit spores to germinate and infect the leaf. The plants were then transferred to a growth room at 22° C. for disease to develop. Fungicide formulation, application and disease assessment on the sprayed leaves followed the procedures as described in the Example A.

Setting [4] is: 24 h, 1 Day Protectant, read-out: SEPTTR 1 DP disease control.
Where [5] appears, read: 72 h, 3 Day Curative, read-out: SEPTTR 3 DC disease control.

Consider `COc1ccnc(C(=O)N[C@H]2COC[C@H](Cc3ccccc3)[C@@H](Cc3ccccc3)[C@H](C)OC2=O)c1OCOC(C)=O` [Cmpd. 3, ((2-(((3S,7R,8R,9S)-7,8-dibenzyl-9-methyl-2-oxo-1,5-dioxonan-3-yl)carbamoyl)-4-methoxypyridin-3-yl)oxy)methyl acetate], for which the pest or weed control at 100 µg/mL in experiment [1] (setting [4]) and in experiment [1] (setting [5]) was more than 70% in each case. The pest or weed control at 121.5 g/ha in experiment [1] (setting [4]) and in experiment [1] (setting [5]) was more than 70% each time. For the same compound, the “COLLLA disease control rating” value in experiment [2] is “A (>70)”. Besides, the “ALTESO disease control rating” value in experiment [3] is “A (>70)”.
As for `CCCC[C@@H]1[C@@H](Cc2ccccc2)COC[C@H](NC(=O)c2nccc(OC)c2OCOC(=O)C(C)C)C(=O)O[C@H]1C` [compound 1], in experiment [1] (setting [4]), the pest or weed control at 100 µg/mL was more than 70% and the pest or weed control at 121.5 g/ha was more than 70%. Further, in experiment [1] (setting [5]), the pest or weed control at 100 µg/mL was more than 70% and the pest or weed control at 121.5 g/ha was more than 70%. For the same compound, in experiment [2], the “COLLLA disease control rating” value is “A (>70)”. In addition, in experiment [3], the “ALTESO disease control rating” value is on record as “A (>70)”.
Consider `COc1ccnc(C(=O)N[C@H]2COC[C@H](c3ccccc3)[C@@H](c3ccccc3)[C@H](C)OC2=O)c1OCOC(C)=O` [compound 7], for which, in experiment [1] (setting [4]), the pest or weed control at 100 µg/mL was more than 70% and the pest or weed control at 121.5 g/ha was more than 70%. For the same compound, in experiment [1] (setting [5]), the pest or weed control at 100 µg/mL was more than 70% and the pest or weed control at 121.5 g/ha is more than 70%. Besides, the “COLLLA disease control rating” value in experiment [2] is “A (>70)”. For the same compound, the “ALTESO disease control rating” value in experiment [3] is recorded as “A (>70)”.
Turning to `CCCC[C@@H]1[C@@H](Cc2ccc(C(F)(F)F)cc2)COC[C@H](NC(=O)c2nccc(OC)c2OCOC(C)=O)C(=O)O[C@H]1C` [compound 16], the pest or weed control at 121.5 g/ha in experiment [1] (setting [4]) and in experiment [1] (setting [5]) was more than 70% each time. Besides, the “COLLLA disease control rating” value in experiment [2] is recorded as “A (>70)”. Besides, in experiment [3], the “ALTESO disease control rating” value was “A (>70)”.
On to `COc1ccnc(C(=O)N[C@H]2COC[C@H](Cc3ccccc3)[C@@H](Cc3ccccc3)[C@H](C)OC2=O)c1OC(C)=O` [compound 27], for which the pest or weed control at 121.5 g/ha in experiment [1] (setting [4]) and in experiment [1] (setting [5]) was more than 70% throughout. In experiment [2], the “COLLLA disease control rating” value is reported as “A (>70)”. In addition, the “ALTESO disease control rating” value in experiment [3] is recorded as “A (>70)”.
Turning to `COc1ccnc(C(=O)N[C@H]2COC[C@H](CC3CC3)[C@@H](c3ccccc3)[C@H](C)OC2=O)c1OC(C)=O` [compound 100], the pest or weed control at 121.5 g/ha in experiment [1] (setting [4]) and in experiment [1] (setting [5]) was more than 70% throughout. Moreover, the “COLLLA disease control rating” value in experiment [2] was “A (>70)”. The “ALTESO disease control rating” value in experiment [3] is listed as “A (>70)”.
